The results in this text go back to patent publication US11230543B2, “Biaryl monobactam compounds and methods of use thereof for the treatment of bacterial infections” (priority 2015, dated 2022).

Experiment [1] concerns Pseudomonas aeruginosa expressing AmpC (CL5701). Put plainly: Antibiotic activity: growth inhibitory concentration (OD600), Pseudomonas aeruginosa CL5701. Conditions: lowest concentration inhibiting 95% of bacterial growth; in the presence of β lactamase inhibitor Relebactam 4 μg/mL; 35±2° C. for 22 hours; tested range 100 μM to 0.098 μM. Format: cell-based. The protocol: (§1) Antibiotic Activity: Determination of Growth Inhibitory Concentration
(§2) The concentrations of compounds required to inhibit the growth of various strains of bacteria were determined in an assay that assessed bacterial growth by measuring optical density at 600 nm (OD600). The bacterial strains tested included the clinical strains Escherichia coli expressing NDM-1 (CLB30016), Klebsiella pneumoniae expressing KPC-1 (CL6569), Acinetobacter baumannii expressing TEM-1, AmpC, and Oxa-24/40 (CL6188) and Pseudomonas aeruginosa expressing AmpC (CL5701). All compounds were tested in the presence of a β lactamase inhibitor (BLi, Relebactam) in 384-well microplates. The clinical strains were stored as frozen single use stocks, thawed and diluted into 1.1× cation-adjusted Mueller-Hinton II broth to achieve approximately 2×10^5 CFU/mL. Test compounds were dissolved in DMSO and diluted 1:50 in the assay, resulting in a final concentration range of 100 μM to 0.098 μM. On the day of the assay, 1 μL of test compound was added to the plate followed by 4 μL of 50 μg/mL BLi in MOPS buffer and 45 μL of diluted bacteria. Plates were centrifuged at 1000 rpm for 30 seconds, shaken at approximately 800 rpm for 1 minute, and incubated at 35±2° C. for 22 hours. The concentration of BLi used in the assay was 4 μg/mL. At the end of the incubation, absorbance at 600 nm was determined using a spectrophotometer. Inhibition was quantitated by identifying the lowest concentration of test compound that was required to inhibit 95% of the growth of the bacteria. The results for Examples 1-126 are reported in Table I, expressed as the concentration of compound that inhibited 95% of bacterial growth (Minimum Inhibitory Threshold Concentration; MITC95).

The subject of experiment [2] is Klebsiella pneumoniae expressing KPC-1 (CL6569). Put plainly: Antibiotic activity: growth inhibitory concentration (OD600), Klebsiella pneumoniae CL6569. Format: cell-based. Particulars: lowest concentration inhibiting 95% of bacterial growth, in the presence of β lactamase inhibitor Relebactam 4 μg/mL, 35±2° C. for 22 hours, tested range 100 μM to 0.098 μM. The protocol:
as §1, §2

Structures can show the parent of a compound that is named as a salt.

On to `C[C@H]1[C@H](NC(=O)/C(=N\O[C@@H](COc2ccc(-c3cn(CCCN)[n+](C)c3)cc2)c2nn[nH]n2)c2csc(N)n2)C(=O)N1S(=O)(=O)O.O=C([O-])C(F)(F)F` [Example 30, 1-(3-aminopropyl)-4-(4-((R)-2-((((Z)-1-(2-aminothiazol-4-yl)-2-(((2S,3S)-2-methyl-4-oxo-1-sulfoazetidin-3-yl)amino)-2-oxoethylidene)amino)oxy)-2-(2H-tetrazol-5-yl)ethoxy)phenyl)-2-methyl-1H-pyrazol-2-ium 2,2,2-trifluoroacetate], for which, in experiment [1], the “PA_CL5701 MITC95” value was determined as 6.25 µM. Besides, the “KP_CL6569 MITC95” value in experiment [2] came to 3.125 µM.

With `Cn1c(-c2ccc(OC[C@H](O/N=C(\C(=O)N[C@@H]3C(=O)N(OS(=O)(=O)O)C3(C)C)c3csc(N)n3)C(N)=O)cc2)cn(CCCN)c1=N` [Example 114, (S)-3-((Z)-2-((((S)-1-amino-3-(4-(1-(3-aminopropyl)-2-imino-3-methyl-2,3-dihydro-1H-imidazol-4-yl)phenoxy)-1-oxopropan-2-yl)oxy)imino)-2-(2-aminothiazol-4-yl)acetamido)-2,2-dimethyl-4-oxoazetidin-1-yl sulfate], the “PA_CL5701 MITC95” value in experiment [1] is 50 µM. Further, in experiment [2], the “KP_CL6569 MITC95” value was 1.563 µM.

As for `CC(CN)Nc1ccc(-c2ccc(OC[C@H](O/N=C(\C(=O)N[C@@H]3C(=O)N(OS(=O)(=O)[O-])C3(C)C)c3csc(N)n3)C(=O)O)cc2)c[n+]1C` (stereo partly drawn) [Example 75, (3S)-3-((Z)-2-(((1S)-2-(4-(6-((1-aminopropan-2-yl)amino)-1-methylpyridin-1-ium-3-yl)phenoxy)-1-carboxyethoxy)imino)-2-(2-aminothiazol-4-yl)acetamido)-2,2-dimethyl-4-oxoazetidin-1-yl sulfate], in experiment [1], the “PA_CL5701 MITC95” value was found to be 3.125 µM. Also, the “KP_CL6569 MITC95” value in experiment [2] was determined as 0.1953 µM.

`CC1(C)[C@H](NC(=O)/C(=N\O[C@@H](COc2ccc(C3CN=C(NCCN)N3)cc2)C(=O)O)c2csc(N)n2)C(=O)N1OS(=O)(=O)O` (stereo partly drawn) [Example 60, (2S)-3-(4-(2-((2-aminoethyl)amino)-4,5-dihydro-1H-imidazol-5-yl)phenoxy)-2-((((Z)-1-(2-aminothiazol-4-yl)-2-(((S)-2,2-dimethyl-4-oxo-1-(sulfooxy)azetidin-3-yl)amino)-2-oxoethylidene)amino)oxy)propanoic acid]: in experiment [1], the “PA_CL5701 MITC95” value turned out to be 3.125 µM. In addition, in experiment [2], the “KP_CL6569 MITC95” value came to 0.3906 µM.

As to `C[n+]1cc(-c2ccc(CCC(O/N=C(\C(=O)N[C@@H]3C(=O)N(OS(=O)(=O)[O-])C3(C)C)c3csc(N)n3)C(=O)O)cc2)cn1CCCN` (single isomer, unassigned) [Example 93], the “PA_CL5701 MITC95” value in experiment [1] turned out to be 6.25 µM. In addition, the “KP_CL6569 MITC95” value in experiment [2] was 0.1953 µM.

As to `C[n+]1cc(-c2ccc(OCC(C)(O/N=C(\C(=O)N[C@@H]3C(=O)N(OS(=O)(=O)O)C3(C)C)c3csc(N)n3)C(=O)O)cc2)cn1CCCN` (single isomer, unassigned) [Example 23A, 2,2,2-trifluoroacetate], in experiment [1], the “PA_CL5701 MITC95” value was determined as 3.125 µM. In addition, in experiment [2] (2,2,2-trifluoroacetate), the “KP_CL6569 MITC95” value stood at 0.3906 µM.

Regarding `C[n+]1cc(-c2ccc(OC[C@H](O/N=C(\C(=O)N[C@@H]3C(=O)N(OS(=O)(=O)O)C3(C)C)c3csc(N)n3)C(=O)O)cc2)cn1CCCNCCCN` [Example 104, (S)-3-((E)-2-(((S)-2-(4-(1-(3-((3-aminopropyl)amino)-propyl)-2-methyl-1H-pyrazol-2-ium-4-yl)phenoxy)-1-carboxyethoxy)imino)-2-(2-aminothiazol-4-yl)acetamido)-2,2-dimethyl-4-oxoazetidin-1-yl sulfate, 3TFA], the “PA_CL5701 MITC95” value in experiment [1] is 6.25 µM. The “KP_CL6569 MITC95” value in experiment [2] amounted to 0.1953 µM.

For the molecule `CC1(C)[C@H](NC(=O)/C(=N\O[C@@H](COc2ccc(C3CN=C(NCCN)NC3)cc2)C(=O)O)c2csc(N)n2)C(=O)N1OS(=O)(=O)O` (stereo partly drawn) [Example 94, (2S)-3-(4-(2-((2-aminoethyl)amino)-1,4,5,6-tetrahydropyrimidin-5-yl)phenoxy)-2-((((Z)-1-(2-aminothiazol-4-yl)-2-(((S)-2,2-dimethyl-4-oxo-1-(sulfooxy)azetidin-3-yl)amino)-2-oxoethylidene)amino)oxy)propanoic acid], the “PA_CL5701 MITC95” value in experiment [1] was found to be 3.125 µM. In addition, the “KP_CL6569 MITC95” value in experiment [2] came to 0.1953 µM.

On to `CC1(C)[C@H](NC(=O)/C(=N\OC(COc2ccc(C(N)CNC3=NCCN3)cc2)C(=O)O)c2csc(N)n2)C(=O)N1OS(=O)(=O)O` (stereo in doubt) [Example 59, (R)-3-(4-((S)-1-amino-2-((4,5-dihydro-1H-imidazol-2-yl)amino)ethyl)phenoxy)-2-((((Z)-1-(2-aminothiazol-4-yl)-2-(((S)-2,2-dimethyl-4-oxo-1-(sulfooxy)azetidin-3-yl)amino)-2-oxoethylidene)amino)oxy)propanoic acid], for which the “PA_CL5701 MITC95” value in experiment [1] was 12.5 µM. Moreover, the “KP_CL6569 MITC95” value in experiment [2] came to 3.125 µM.

Consider `CC1(C)[C@H](NC(=O)/C(=N\O[C@@H](COc2ccc(-c3cn(CCCN)[n+](CCN)c3)cc2)C(=O)O)c2csc(N)n2)C(=O)N1OS(=O)(=O)[O-]` [Example 100, (S)-3-((Z)-2-(((S)-2-(4-(2-(2-aminoethyl)-1-(3-aminopropyl)-1H-pyrazol-2-ium-4-yl)phenoxy)-1-carboxyethoxy)imino)-2-(2-aminothiazol-4-yl)acetamido)-2,2-dimethyl-4-oxoazetidin-1-yl sulfate], for which, in experiment [1], the “PA_CL5701 MITC95” value was 3.125 µM. In experiment [2], the “KP_CL6569 MITC95” value was 0.39 µM.

As for `C[n+]1cc(-c2ccc(NCC(O/N=C(\C(=O)N[C@@H]3C(=O)N(OS(=O)(=O)[O-])C3(C)C)c3csc(N)n3)C(=O)O)cc2)cn1CCCN` (stereo partly drawn) [Example 91, (3S)-3-(2-((2-((4-(1-(3-aminopropyl)-2-methyl-1H-pyrazol-2-ium-4-yl)phenyl)amino)-1-carboxyethoxy)imino)-2-(2-aminothiazol-4-yl)acetamido)-2,2-dimethyl-4-oxoazetidin-1-yl sulfate], in experiment [1], the “PA_CL5701 MITC95” value stood at 12.5 µM. In addition, in experiment [2], the “KP_CL6569 MITC95” value stood at 0.7813 µM.

For `C[n+]1cc(-c2ccc(OC[C@@](C)(O/N=C(\C(=O)N[C@@H]3C(=O)N(OS(=O)(=O)O)C3(C)C)c3nc(N)sc3Cl)C(=O)O)cc2)cn1CCCN` [Example 51B, (S)-3-((Z)-2-(2-amino-5-chlorothiazol-4-yl)-2-((((R)-1-(4-(1-(3-aminopropyl)-2-methyl-1H-pyrazol-2-ium-4-yl)phenoxy)-2-carboxypropan-2-yl)oxy)imino)acetamido)-2,2-dimethyl-4-oxoazetidin-1-yl sulfate], the “PA_CL5701 MITC95” value in experiment [1] came to 25 µM. The “KP_CL6569 MITC95” value in experiment [2] stood at 6.25 µM.

Consider `C[n+]1nc(-c2ccc(OC[C@H](O/N=C(\C(=O)N[C@@H]3C(=O)N(OS(=O)(=O)[O-])C3(C)C)c3csc(N)n3)C(=O)O)cc2)ccc1NCCCN` [Example 123, (S)-3-((Z)-2-(((S)-2-(4-(6-((3-aminopropyl)amino)-1-methylpyridazin-1-ium-3-yl)phenoxy)-1-carboxyethoxy)imino)-2-(2-aminothiazol-4-yl)acetamido)-2,2-dimethyl-4-oxoazetidin-1-yl sulfate], for which the “PA_CL5701 MITC95” value in experiment [1] was found to be 12.5 µM. The “KP_CL6569 MITC95” value in experiment [2] amounted to 0.3906 µM.

`CC1(C)[C@H](NC(=O)/C(=N\O[C@H](COc2ccc(Nc3nccn3CCCN)nc2)C(=O)O)c2csc(N)n2)C(=O)N1OS(=O)(=O)O` [Example 37B, 3-(2-((5-((R)-2-((((Z)-1-(2-aminothiazol-4-yl)-2-(((S)-2,2-dimethyl-4-oxo-1-(sulfooxy)azetidin-3-yl)amino)-2-oxoethylidene)amino)oxy)-2-carboxyethoxy)pyridin-2-yl)amino)-1H-imidazol-1-yl)propan-1-aminium 2,2,2-trifluoroacetate]: the “PA_CL5701 MITC95” value in experiment [1] stood at 25 µM. Moreover, the “KP_CL6569 MITC95” value in experiment [2] was found to be 6.25 µM.

`C[n+]1cc(-c2ccc(OC[C@H](O/N=C(\C(=O)N[C@@H]3C(=O)N(OS(=O)(=O)[O-])C3(C)C)c3csc(N)n3)C(=O)O)cc2)ccc1CNC(CN)CN` [Example 79, (S)-3-((Z)-2-(2-aminothiazol-4-yl)-2-(((S)-1-carboxy-2-(4-(6-(((1,3-diaminopropan-2-yl)amino)methyl)-1-methylpyridin-1-ium-3-yl)phenoxy)ethoxy)imino)acetamido)-2,2-dimethyl-4-oxoazetidin-1-yl sulfate]: in experiment [1], the “PA_CL5701 MITC95” value was 6.25 µM. In addition, in experiment [2], the “KP_CL6569 MITC95” value was 0.3906 µM.

`C[C@@H]1[C@H](NC(=O)/C(=N\O[C@@H](COc2ccc(-c3cn(CCCN)[n+](C)c3)cc2)C(=O)O)c2csc(N)n2)C(=O)N1S(=O)(=O)[O-]` [Example 9, (2R,3S)-3-((Z)-2-(((S)-2-(4-(1-(3-aminopropyl)-2-methyl-1H-pyrazol-2-ium-4-yl)phenoxy)-1-carboxyethoxy)imino)-2-(2-aminothiazol-4-yl)acetamido)-2-methyl-4-oxoazetidine-1-sulfonate]: the “PA_CL5701 MITC95” value in experiment [1] was 6.25 µM. Moreover, in experiment [2], the “KP_CL6569 MITC95” value was found to be 0.3906 µM.
